From patent publication US8871738B2, “Fused bicyclic oxazolidinone CETP inhibitor” (Merck Sharp & Dohme Corp., priority 2011, dated 2014)

Each compound was assayed against endogenous CETP from serum (Homo sapiens (Human), UniProt P11597) (assay: RTA assay in 95% human serum (CETP-catalyzed CE and TG transfer, endogenous CETP)). Settings: RTA assay in 95% human serum; read-out: IC50.
Type: biochemical

Chain of endogenous CETP from serum (P11597 18-493 limits assumed): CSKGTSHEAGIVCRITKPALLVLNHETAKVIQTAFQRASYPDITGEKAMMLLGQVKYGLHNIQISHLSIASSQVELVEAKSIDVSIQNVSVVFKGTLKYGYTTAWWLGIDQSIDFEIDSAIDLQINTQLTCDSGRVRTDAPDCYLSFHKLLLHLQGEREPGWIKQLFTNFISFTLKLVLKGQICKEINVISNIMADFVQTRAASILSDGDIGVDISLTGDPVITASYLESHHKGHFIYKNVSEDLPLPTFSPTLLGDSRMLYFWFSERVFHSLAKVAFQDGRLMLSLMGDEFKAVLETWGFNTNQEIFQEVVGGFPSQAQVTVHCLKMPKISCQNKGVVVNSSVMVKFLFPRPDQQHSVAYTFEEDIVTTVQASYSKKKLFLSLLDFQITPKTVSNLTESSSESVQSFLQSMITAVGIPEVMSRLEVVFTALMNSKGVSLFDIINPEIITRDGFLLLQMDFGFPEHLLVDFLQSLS

| SMILES | IC50 |
| --- | --- |
| Cc1cc(C(=O)O)ccc1-c1cnc(C)c(-c2ccc(C(F)(F)F)cc2[C@@H]2CC[C@H]3[C@@H](c4cc(C(F)(F)F)cc(C(F)(F)F)c4)OC(=O)N23)c1 [Example 66, 4-{5-[2-{(1R,5S,7aS)-1-[3,5-bis(trifluoromethyl)phenyl]-3-oxotetrahydro-1H-pyrrolo[1,2-c][1,3]oxazol-5-yl}-4-(trifluoromethyl)phenyl]-6-methylpyridin-3-yl}-3-methylbenzoic acid] | 1290 nM |
| COc1ccc(-c2ccc(C(=O)O)cc2C)cc1-c1ncc(C(F)(F)F)cc1[C@@H]1C=C[C@H]2[C@@H](c3cc(C(F)(F)F)cc(C(F)(F)F)c3)OC(=O)N12 [Example 68, 3′-(3-((1R,5S,7aS)-1-(3,5-bis(trifluuoromethyl)phenyl)-3-oxo-1,3,5,7a-tetrahydropyrrolo[1,2-c]oxazol-5-yl)-5-(trifluoromethyl)pyridin-2-yl)-4′-methoxy-2-methyl-[1,1′-biphenyl]-4-carboxylic acid] | 424 nM |
| COc1ncc(-c2c(C)cc(C(=O)O)cc2C)cc1-c1ncc(C(F)(F)F)cc1[C@@H]1CC[C@H]2[C@@H](c3cc(C(F)(F)F)cc(C(F)(F)F)c3)OC(=O)N12 [Example 70, 4-[3-{(1R,5S,7aS)-1-[3,5-bis(trifluoromethyl)phenyl]-3-oxotetrahydro-1H-pyrrolo[1,2-c][1,3]oxazol-5-yl}-2′-methoxy-5-(trifluoromethyl)-2,3′-bipyridin-5′-yl]-3,5-dimethylbenzoic acid] | 751 nM |
| COc1cc(F)c(-c2ccc(C(=O)O)cc2C)cc1-c1ccc(C(F)(F)F)cc1[C@@H]1CC[C@H]2[C@@H](c3cc(C)cc(C(F)(F)F)c3)OC(=O)N12 [Example 29, 6′-fluoro-4′-methoxy-2-methyl-2″- {(1R,5S,7aS)-1-[3-methyl-5-(trifluoromethyl)phenyl]-3-oxotetrahydro-1H-pyrrolo[1,2-c][1,3]oxazol-5-yl}-4″- (trifluoromethyl)-1,1′:3′,1″- terphenyl-4-carboxylic acid] | 44.6 nM |
| COc1ccc(-c2ccc(C(=O)O)cc2C)cc1-c1ccc(F)cc1[C@@H]1CC[C@H]2[C@@H](c3cc(C(F)(F)F)cc(C(F)(F)F)c3)OC(=O)N12 [Example 34, 2″-{(1R,5S,7aS)-1-[3,5-bis(trifluoromethyl)phenyl]-3-oxotetrahydro-1H-pyrrolo[1,2-c][1,3]oxazol-5-yl}-4″-fluoro-4′-methoxy-2-methyl-1,1′:3′,1″- terphenyl-4-carboxylic acid] | 229 nM |
| COc1ncc(C(C)C)cc1-c1ccc(C(F)(F)F)cc1[C@@H]1CC[C@H]2[C@@H](c3cc(C(F)(F)F)cc(C(F)(F)F)c3)OC(=O)N12 [Example 45, (1R,5S,7aS)-1-[3,5-bis(trifluoromethyl)phenyl]-5-{2-[2-methoxy-5-(1-methylethyl)pyridin-3-yl]-5-(trifluoromethyl)phenyl}tetrahydro-1H-pyrrolo[1,2-c][1,3]oxazol-3-one] | 44.7 nM |
| COc1cc(F)c(C(C)C)cc1-c1cnc(N(C)C)nc1[C@@H]1C=C[C@H]2[C@@H](c3cc(C(F)(F)F)cc(C(F)(F)F)c3)OC(=O)N12 [Example 48, (1R,5S,7aS)-1-[3,5-bis(trifluoromethyl)phenyl]-5-{2-(dimethylamino)-5-[4-fluoro-2-methoxy-5-(1-methylethyl)phenyl]pyrimidin-4-yl}-5,7a-dihydro-1H-pyrrolo[1,2-c][1,3]oxazol-3-one] | 695 nM |

Same assay, conditions: RTA assay, 95% human serum; read-out: RTA (95% HS)

| SMILES | IC50 |
| --- | --- |
| COC(=O)CCc1ccc(OC)c(-c2ccc(C(F)(F)F)cc2[C@@H]2CC[C@H]3[C@@H](c4cc(C(F)(F)F)cc(C(F)(F)F)c4)OC(=O)N23)c1 [Example 1, Methyl 3-[2′-{(1R,5S,7aS)-1-[3,5-bis(trifluoromethyl)phenyl]-3-oxotetrahydro-1H-pyrrolo[1,2-c][1,3]oxazol-5-yl}-6-methoxy-4′-(trifluoromethyl)biphenyl-3-yl]propanoate] | 296 nM |
